Measured values as given in article PMC11859928, “Design, Synthesis, and Antiproliferative Activity of Novel Indole/1,2,4-Triazole Hybrids as Tubulin Polymerization Inhibitors” (Pharmaceuticals, 2025).

Tests used:
Assay in all cases: NCI one-dose assay
Assay type in all cases: cell-based
NCI-H322M = details: Homo sapiens, Non-small cell lung cancer, read-out: Cell growth inhibition %
Procedure: (§1) The National Cancer Institute (NCI), Bethesda, USA, selected the final compounds 6a–j and 7a–j for in vitro anticancer screening. An initial in vitro single-dose anticancer experiment was performed with the entire NCI 60 cell lines derived from nine tumor subpanel cancer cell lines. The results for each compound were illustrated as a mean graph showing the percentage growth of treated cells compared to untreated control cells (see Supplementary Materials).
(§2) The NCI anticancer screening process has been thoroughly detailed. The Drug Evaluation Branch of the National Cancer Institute in Bethesda, […], USA, established the procedure and conducted the anticancer assay on 60 human tumor cell lines from nine neoplastic cancers.

HCC-2998 = details: Homo sapiens, HCC-2998, Colon cancer, read-out: Cell growth inhibition %
Procedure: as §1, §2

IGROV1 = details: Homo sapiens, IGROV-1, IGROV1, Ovarian cancer, read-out: Cell growth inhibition %
Procedure: as §1, §2

SK-OV-3 = details: Homo sapiens, SK-OV-3, Ovarian cancer, read-out: Cell growth inhibition %
Procedure: as §1, §2

CAKI-1 = details: Homo sapiens, CAKI-1, Renal cancer, read-out: Cell growth inhibition %
Procedure: as §1, §2

KM12 = details: Homo sapiens, KM12, Colon cancer, read-out: Cell growth inhibition %
Procedure: as §1, §2

U251 = details: Homo sapiens, U-251, U251, CNS cancer, read-out: Cell growth inhibition %
Procedure: as §1, §2

MCF7 = details: Homo sapiens, MCF7, Breast cancer, read-out: Cell growth inhibition %
Procedure: as §1, §2

OVCAR-4 = details: Homo sapiens, OVCAR-4, Ovarian cancer, read-out: Cell growth inhibition %
Procedure: as §1, §2

SK-MEL-28 = details: Homo sapiens, SK-MEL-28, Melanoma, read-out: Cell growth inhibition %
Procedure: as §1, §2

ACHN = details: Homo sapiens, Renal cancer, read-out: Cell growth inhibition %
Procedure: as §1, §2

T-47D = details: Homo sapiens, T47D, Breast cancer, read-out: Cell growth inhibition %
Procedure: as §1, §2

SNB-75 = details: Homo sapiens, SNB-75, CNS cancer, read-out: Cell growth inhibition %
Procedure: as §1, §2

HS 578 T = details: Homo sapiens, Breast cancer, read-out: Cell growth inhibition %
Procedure: as §1, §2

RPMI-8226 = details: Homo sapiens, RPMI-8226, Leukemia, read-out: Cell growth inhibition %
Procedure: as §1, §2

MALME-3M = details: Homo sapiens, Melanoma, read-out: Cell growth inhibition %
Procedure: as §1, §2

MDA-MB-468 = details: Homo sapiens, MDA-MB-468, Breast cancer, read-out: Cell growth inhibition %
Procedure: as §1, §2

K-562 = details: Homo sapiens, K562, K-562, Leukemia, read-out: Cell growth inhibition %
Procedure: as §1, §2

HT29 = details: Homo sapiens, HT-29, HT29, Colon cancer, read-out: Cell growth inhibition %
Procedure: as §1, §2

UACC-62 = details: Homo sapiens, UACC-62, Melanoma, read-out: Cell growth inhibition %
Procedure: as §1, §2

MDA-MB-435 = details: Homo sapiens, MDA-MB-435, Melanoma, read-out: Cell growth inhibition %
Procedure: as §1, §2

SK-MEL-5 = details: Homo sapiens, SK-MEL-5, Melanoma, read-out: Cell growth inhibition %
Procedure: as §1, §2

UACC-257 = details: Homo sapiens, UACC-257, Melanoma, read-out: Cell growth inhibition %
Procedure: as §1, §2

HL-60(TB) = details: Homo sapiens, Leukemia, read-out: Cell growth inhibition %
Procedure: as §1, §2

OVCAR-8 = details: Homo sapiens, OVCAR-8, Ovarian cancer, read-out: Cell growth inhibition %
Procedure: as §1, §2

M14 = details: Homo sapiens, M14, Melanoma, read-out: Cell growth inhibition %
Procedure: as §1, §2

MDA-MB-231/ATCC = details: Homo sapiens, Breast cancer, read-out: Cell growth inhibition %
Procedure: as §1, §2

A549/ATCC = details: Homo sapiens, Non-small cell lung cancer, read-out: Cell growth inhibition %
Procedure: as §1, §2

BT-549 = details: Homo sapiens, BT-549, Breast cancer, read-out: Cell growth inhibition %
Procedure: as §1, §2

TK-10 = details: Homo sapiens, TK-10, Renal cancer, read-out: Cell growth inhibition %
Procedure: as §1, §2

SF-539 = details: Homo sapiens, SF-539, CNS cancer, read-out: Cell growth inhibition %
Procedure: as §1, §2

NCI-H522 = details: Homo sapiens, NCI-H522, Non-small cell lung cancer, read-out: Cell growth inhibition %
Procedure: as §1, §2

SF-295 = details: Homo sapiens, SF-295, CNS cancer, read-out: Cell growth inhibition %
Procedure: as §1, §2

NCI-H226 = details: Homo sapiens, NCI-H226, Non-small cell lung cancer, read-out: Cell growth inhibition %
Procedure: as §1, §2

SR = details: Homo sapiens, Leukemia, read-out: Cell growth inhibition %
Procedure: as §1, §2

NCI-H460 = details: Homo sapiens, NCI-H460, Non-small cell lung cancer, read-out: Cell growth inhibition %
Procedure: as §1, §2

Structure (SMILES)	inhibition at 10 µM (NCI-H322M)	inhibition at 10 µM (HCC-2998)	inhibition at 10 µM (IGROV1)	inhibition at 10 µM (SK-OV-3)	inhibition at 10 µM (CAKI-1)	inhibition at 10 µM (KM12)	inhibition at 10 µM (U251)	inhibition at 10 µM (MCF7)	inhibition at 10 µM (OVCAR-4)	inhibition at 10 µM (SK-MEL-28)	inhibition at 10 µM (ACHN)	inhibition at 10 µM (T-47D)	inhibition at 10 µM (SNB-75)	inhibition at 10 µM (HS 578 T)	inhibition at 10 µM (RPMI-8226)	inhibition at 10 µM (MALME-3M)	inhibition at 10 µM (MDA-MB-468)	inhibition at 10 µM (K-562)	inhibition at 10 µM (HT29)	inhibition at 10 µM (UACC-62)	further results
O=C(CSc1nnc(-c2c[nH]c3ccccc23)n1-c1ccccc1)c1ccccc1 [Compound 6f, 2-((5-(1H-indol-3-yl)-4-phenyl-4H-1,2,4-triazol-3-yl)thio)-1-phenylethanone]	18.8%	16.9%	44.9%	14.4%	46.8%	30.5%	89.2%	63.8%	102%	0.04%	39.5%	16.5%	-0.34%	75.9%	18.7%	62.6%	22.8%	47.2%	52.1%	26.6%	inhibition at 10 µM (MDA-MB-435): 12.8%; inhibition at 10 µM (SK-MEL-5): 9.3%; inhibition at 10 µM (UACC-257): -3.2%; inhibition at 10 µM (HL-60(TB)): 12.8%; inhibition at 10 µM (OVCAR-8): 85.3%; inhibition at 10 µM (M14): 26.4%; inhibition at 10 µM (MDA-MB-231/ATCC): 73%; inhibition at 10 µM (A549/ATCC): 14.5%; inhibition at 10 µM (BT-549): 37.8%; inhibition at 10 µM (TK-10): 28%; inhibition at 10 µM (SF-539): 92.4%; inhibition at 10 µM (NCI-H522): 28.4%; inhibition at 10 µM (SF-295): 28%; inhibition at 10 µM (NCI-H226): 95.5%; inhibition at 10 µM (SR): 18.4%; inhibition at 10 µM (NCI-H460): 38.2%
C=CCn1c(SC/C(=N\O)c2ccccc2)nnc1-c1c[nH]c2ccccc12 [Compound 7a, (Z)-2-((4-Allyl-5-(1H-indol-3-yl)-4H-1,2,4-triazol-3-yl)thio)-1-phenylethanone Oxime]	-0.17%	0.84%	7.6%	2.21%	6.71%	-2.55%	4.62%	-2.96%	-8.19%	-4.36%	3.82%	8.67%	-3.17%	5.73%	0.38%	7.6%	15.4%	3.29%	-3.61%	13.6%	inhibition at 10 µM (MDA-MB-435): -5.56%; inhibition at 10 µM (SK-MEL-5): 1.57%; inhibition at 10 µM (UACC-257): -13.1%; inhibition at 10 µM (HL-60(TB)): 9.34%; inhibition at 10 µM (OVCAR-8): 1.16%; inhibition at 10 µM (M14): -13.4%; inhibition at 10 µM (MDA-MB-231/ATCC): 3.9%; inhibition at 10 µM (A549/ATCC): -6.67%; inhibition at 10 µM (BT-549): -3.51%; inhibition at 10 µM (TK-10): -12.2%; inhibition at 10 µM (SF-539): 3.26%; inhibition at 10 µM (NCI-H522): 4.48%; inhibition at 10 µM (SF-295): 12.4%; inhibition at 10 µM (NCI-H226): 12.1%; inhibition at 10 µM (SR): -10.3%; inhibition at 10 µM (NCI-H460): 3.34%
C=CCn1c(SC/C(=N\O)c2ccc(Cl)cc2)nnc1-c1c[nH]c2ccccc12 [Compound 7e, (Z)-2-((4-allyl-5-(1H-indol-3-yl)-4H-1,2,4-triazol-3-yl)thio)-1-(4-chlorophenyl) Ethanone Oxime]	11.9%	8.7%	29.7%	3.52%	25.4%	4.48%	1.78%	13.3%	19.9%	0.08%	10.2%	46.5%	4.75%	12.7%	29.7%	15.6%	43.1%	39.3%	5.77%	35.8%	inhibition at 10 µM (MDA-MB-435): 10.7%; inhibition at 10 µM (SK-MEL-5): 27.4%; inhibition at 10 µM (UACC-257): 6.8%; inhibition at 10 µM (HL-60(TB)): 35%; inhibition at 10 µM (OVCAR-8): 16.8%; inhibition at 10 µM (M14): 16%; inhibition at 10 µM (MDA-MB-231/ATCC): 23.1%; inhibition at 10 µM (A549/ATCC): 6.38%; inhibition at 10 µM (BT-549): 14.4%; inhibition at 10 µM (TK-10): 1.28%; inhibition at 10 µM (SF-539): 5.14%; inhibition at 10 µM (NCI-H522): 19.5%; inhibition at 10 µM (SF-295): 25%; inhibition at 10 µM (NCI-H226): 30.4%; inhibition at 10 µM (SR): 12.1%; inhibition at 10 µM (NCI-H460): 24.7%
